Tests used:
velvetleaf = experiment: Test B pre/postemergence velvetleaf; format: in vivo, Abutilon theophrasti
Outline: (§1)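 Herbicidal effect was estimated by eye on a ten-point control scale after plants spent twelve to sixteen days in a greenhouse following soil or foliar treatment. Foliar sprays targeted plants at one to four leaves; all doses were formulated in a non-phytotoxic solvent with surfactant.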

purple nutsedge = experiment: Test B pre/postemergence purple nutsedge; format: in vivo, Cyperus rotundus
Outline: as §1

crabgrass = experiment: Test B pre/postemergence crabgrass; format: in vivo, Digitaria sanguinalis
Outline: as §1

wild oat = experiment: Test B pre/postemergence wild oat; format: in vivo, Avena fatua
Outline: as §1

duck salad = experiment: Test B flood test duck salad; format: in vivo, Heteranthera limosa
Outline: (§2)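 Read-out is a visual response score from 0 (no effect) to 10 (complete control), assigned by comparison with untreated controls. Treatment was applied at the 2-leaf stage, and plants stayed in the greenhouse for twelve to sixteen days before scoring.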

giant foxtail = experiment: Test B pre/postemergence giant foxtail; format: in vivo, Setaria faberii
Outline: as §1

sugar beet = experiment: Test B pre/postemergence sugar beet; format: in vivo, Beta vulgaris
Outline: as §1

pigweed = experiment: Test B pre/postemergence pigweed; format: in vivo, Amaranthus retroflexus
Outline: as §1

rape = experiment: Test B pre/postemergence rape; format: in vivo, Brassica napus
Outline: as §1

bamyardgrass = experiment: Test B flood test barnyardgrass; format: in vivo, Echinochloa crus-galli
Outline: as §2

morningglory = experiment: Test B pre/postemergence morningglory; format: in vivo, Ipomoea hederacea
Outline: as §1

cocklebur = experiment: Test B pre/postemergence cocklebur; format: in vivo, Xanthium strumarium
Outline: as §1

corn = experiment: Test B pre/postemergence corn; format: in vivo, Zea mays
Outline: as §1

wheat = experiment: Test B pre/postemergence wheat; format: in vivo, Triticum aestivum
Outline: as §1

soybean = experiment: Test B pre/postemergence soybean; format: in vivo, Glycine max
Outline: as §1

rice = experiment: Test B flood test rice; format: in vivo, Oryza sativa
Outline: as §2

[1] = Postemergence, Rate 250 g/ha, scale 0 to 10
[2] = Postemergence, Rate 500 g/ha, scale of 0 to 10 where 0 is no effect and 10 is complete control
[3] = Preemergence, Rate 62 g/ha, scale of 0 to 10 where 0 is no effect and 10 is complete control
[4] = Preemergence, Rate 125 g/ha, scale of 0 to 10 where 0 is no effect and 10 is complete control
[5] = Preemergence, Rate 250 g/ha, scale 0 to 10, 0 is no effect, 10 is complete control
[6] = Preemergence, Rate 500 g/ha, scale 0 to 10, 0 is no effect, 10 is complete control
[7] = Rate 62 g/ha, Postemergence, scale 0 to 10 (0 no effect, 10 complete control)
[8] = Rate 125 g/ha, Postemergence, scale 0 to 10, 0 is no effect, 10 is complete control
[9] = Rate 62 g/ha, flood test species, Pre-emergence, visual evaluation after twelve to sixteen days
[10] = Rate 125 g/ha, under heading Pre-emergence, flood test species, visual evaluation after twelve to sixteen days
[11] = Rate 250 g/ha, Pre-emergence (flood test species), scale 0 to 10, 0 is no effect, 10 is complete control
[12] = Rate 500 g/ha, Pre-emergence, flood test species, scale 0 to 10 (0 no effect, 10 complete control)

CC(C)N(C(=O)n1oc(=O)n(CNC(=O)c2ccccc2)c1=O)c1ccc(F)cc1 [Compound 445]
Velvetleaf plant response rating (velvetleaf; [1]): 3
Velvetleaf plant response rating (velvetleaf; [2]): 5
Plant response rating, Velvetleaf (velvetleaf; [3]): 0
Plant response rating, Velvetleaf (velvetleaf; [4]): 0
Velvetleaf plant response rating (velvetleaf; [5]): 2
Velvetleaf plant response rating (velvetleaf; [6]): 3
Velvetleaf plant response rating (velvetleaf; [7]): 0
Velvetleaf plant response rating (velvetleaf; [8]): 2
Nutsedge plant response rating (purple nutsedge; [1]): 0
Nutsedge plant response rating (purple nutsedge; [2]): 0
Plant response rating, Nutsedge (purple nutsedge; [3]): 0
Plant response rating, Nutsedge (purple nutsedge; [4]): 0
Nutsedge plant response rating (purple nutsedge; [5]): 0
Nutsedge plant response rating (purple nutsedge; [6]): 0
Nutsedge plant response rating (purple nutsedge; [7]): 0
Nutsedge plant response rating (purple nutsedge; [8]): 0
Crabgrass plant response rating (crabgrass; [1]): 3
Crabgrass plant response rating (crabgrass; [2]): 7
Plant response rating, Crabgrass (crabgrass; [3]): 0
Plant response rating, Crabgrass (crabgrass; [4]): 2
Crabgrass plant response rating (crabgrass; [5]): 3
Crabgrass plant response rating (crabgrass; [6]): 9
Crabgrass plant response rating (crabgrass; [7]): 0
Crabgrass plant response rating (crabgrass; [8]): 1
Wild oats plant response rating (wild oat; [1]): 0
Wild oats plant response rating (wild oat; [2]): 0
Plant response rating, Wild oats (wild oat; [3]): 0
Plant response rating, Wild oats (wild oat; [4]): 0
Wild oats plant response rating (wild oat; [5]): 0
Wild oats plant response rating (wild oat; [6]): 0
Wild oats plant response rating (wild oat; [7]): 0
Wild oats plant response rating (wild oat; [8]): 0
Plant response rating, Ducksalad (0 to 10 scale, 0 is no effect, 10 is complete control) (duck salad; [9]): 0
Ducksalad plant response rating (0 to 10 scale, 0 is no effect, 10 is complete control) (duck salad; [10]): 0
Ducksalad plant response rating (duck salad; [11]): 0
Ducksalad plant response rating (duck salad; [12]): 0
Giant foxtail plant response rating (giant foxtail; [1]): 1
Giant foxtail plant response rating (giant foxtail; [2]): 2
Plant response rating, Giant foxtail (giant foxtail; [3]): 0
Plant response rating, Giant foxtail (giant foxtail; [4]): 0
Giant foxtail plant response rating (giant foxtail; [5]): 5
Giant foxtail plant response rating (giant foxtail; [6]): 9
Giant foxtail plant response rating (giant foxtail; [7]): 0
Giant foxtail plant response rating (giant foxtail; [8]): 0
Sugarbeets plant response rating (sugar beet; [1]): 0
Sugarbeets plant response rating (sugar beet; [2]): 0
Plant response rating, Sugarbeets (sugar beet; [3]): 0
Plant response rating, Sugarbeets (sugar beet; [4]): 0
Sugarbeets plant response rating (sugar beet; [5]): 0
Sugarbeets plant response rating (sugar beet; [6]): 0
Sugarbeets plant response rating (sugar beet; [7]): 0
Sugarbeets plant response rating (sugar beet; [8]): 0
Redroot pigweed plant response rating (pigweed; [2]): 4
Plant response rating, Redroot pigweed (pigweed; [3]): 0
Plant response rating, Redroot pigweed (pigweed; [4]): 2
Redroot pigweed plant response rating (pigweed; [5]): 4
Redroot pigweed plant response rating (pigweed; [6]): 10
Redroot pigweed plant response rating (pigweed; [7]): 0
Redroot pigweed plant response rating (pigweed; [8]): 0
Rape plant response rating (rape; [1]): 2
Rape plant response rating (rape; [2]): 2
Plant response rating, Rape (rape; [3]): 0
Plant response rating, Rape (rape; [4]): 0
Rape plant response rating (rape; [5]): 0
Rape plant response rating (rape; [6]): 2
Rape plant response rating (rape; [7]): 0
Rape plant response rating (rape; [8]): 0
Plant response rating, Barnyardgrass (0 to 10 scale, 0 is no effect, 10 is complete control) (bamyardgrass; [9]): 0
Barnyardgrass plant response rating (0 to 10 scale, 0 is no effect, 10 is complete control) (bamyardgrass; [10]): 0
Barnyardgrass plant response rating (bamyardgrass; [11]): 0
Barnyardgrass plant response rating (bamyardgrass; [12]): 0
Morningglory plant response rating (morningglory; [1]): 4
Morningglory plant response rating (morningglory; [2]): 8
Plant response rating, Morningglory (morningglory; [3]): 0
Plant response rating, Morningglory (morningglory; [4]): 0
Morningglory plant response rating (morningglory; [5]): 0
Morningglory plant response rating (morningglory; [6]): 0
Morningglory plant response rating (morningglory; [7]): 3
Morningglory plant response rating (morningglory; [8]): 4
Cocklebur plant response rating (cocklebur; [1]): 2
Cocklebur plant response rating (cocklebur; [2]): 2
Plant response rating, Cocklebur (cocklebur; [3]): 0
Plant response rating, Cocklebur (cocklebur; [4]): 0
Cocklebur plant response rating (cocklebur; [5]): 0
Cocklebur plant response rating (cocklebur; [7]): 0
Cocklebur plant response rating (cocklebur; [8]): 2
Corn plant response rating (corn; [1]): 0
Corn plant response rating (corn; [2]): 0
Plant response rating, Corn (corn; [3]): 0
Plant response rating, Corn (corn; [4]): 0
Corn plant response rating (corn; [5]): 0
Corn plant response rating (corn; [6]): 0
Corn plant response rating (corn; [7]): 0
Corn plant response rating (corn; [8]): 0
Wheat plant response rating (wheat; [1]): 0
Wheat plant response rating (wheat; [2]): 0
Plant response rating, Wheat (wheat; [3]): 0
Plant response rating, Wheat (wheat; [4]): 0
Wheat plant response rating (wheat; [5]): 0
Wheat plant response rating (wheat; [6]): 0
Wheat plant response rating (wheat; [7]): 0
Wheat plant response rating (wheat; [8]): 0
Soybean plant response rating (soybean; [1]): 1
Soybean plant response rating (soybean; [2]): 2
Plant response rating, Soybean (soybean; [3]): 0
Plant response rating, Soybean (soybean; [4]): 0
Soybean plant response rating (soybean; [6]): 0
Soybean plant response rating (soybean; [7]): 1
Soybean plant response rating (soybean; [8]): 1
Plant response rating, Rice (0 to 10 scale, 0 is no effect, 10 is complete control) (rice; [9]): 0
Rice plant response rating (0 to 10 scale, 0 is no effect, 10 is complete control) (rice; [10]): 0
Rice plant response rating (rice; [11]): 0
Rice plant response rating (rice; [12]): 0

Reference: patent US6737383B1, “Herbicidal oxadiazolidines” (priority 1999, dated 2004)
